From patent US20090018134A1, “Compounds - 945” (AstraZeneca AB, priority 2007, published 2009)

Target: T1, mTOR (Homo sapiens, UniProt P42345)
T1 construct: FLAG; made in house
Assay: In Vitro mTOR Kinase Assay (Echo), Test (a)(ii)
Type: biochemical
Conditions: table of enzyme assay Test (a)(ii); read-out: Test (a)(ii) IC50
Method in brief: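 Compounds were acoustically dispensed, then incubated with FLAG-tagged mTOR (1362-2549) for 2 hours at room temperature. Reactions were quenched with EDTA plus detection antibody and AlphaScreen beads and left overnight in the dark before reading. Loss of phospho-T389 signal gave IC50 values.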

T1 sequence (P42345 1362-2549): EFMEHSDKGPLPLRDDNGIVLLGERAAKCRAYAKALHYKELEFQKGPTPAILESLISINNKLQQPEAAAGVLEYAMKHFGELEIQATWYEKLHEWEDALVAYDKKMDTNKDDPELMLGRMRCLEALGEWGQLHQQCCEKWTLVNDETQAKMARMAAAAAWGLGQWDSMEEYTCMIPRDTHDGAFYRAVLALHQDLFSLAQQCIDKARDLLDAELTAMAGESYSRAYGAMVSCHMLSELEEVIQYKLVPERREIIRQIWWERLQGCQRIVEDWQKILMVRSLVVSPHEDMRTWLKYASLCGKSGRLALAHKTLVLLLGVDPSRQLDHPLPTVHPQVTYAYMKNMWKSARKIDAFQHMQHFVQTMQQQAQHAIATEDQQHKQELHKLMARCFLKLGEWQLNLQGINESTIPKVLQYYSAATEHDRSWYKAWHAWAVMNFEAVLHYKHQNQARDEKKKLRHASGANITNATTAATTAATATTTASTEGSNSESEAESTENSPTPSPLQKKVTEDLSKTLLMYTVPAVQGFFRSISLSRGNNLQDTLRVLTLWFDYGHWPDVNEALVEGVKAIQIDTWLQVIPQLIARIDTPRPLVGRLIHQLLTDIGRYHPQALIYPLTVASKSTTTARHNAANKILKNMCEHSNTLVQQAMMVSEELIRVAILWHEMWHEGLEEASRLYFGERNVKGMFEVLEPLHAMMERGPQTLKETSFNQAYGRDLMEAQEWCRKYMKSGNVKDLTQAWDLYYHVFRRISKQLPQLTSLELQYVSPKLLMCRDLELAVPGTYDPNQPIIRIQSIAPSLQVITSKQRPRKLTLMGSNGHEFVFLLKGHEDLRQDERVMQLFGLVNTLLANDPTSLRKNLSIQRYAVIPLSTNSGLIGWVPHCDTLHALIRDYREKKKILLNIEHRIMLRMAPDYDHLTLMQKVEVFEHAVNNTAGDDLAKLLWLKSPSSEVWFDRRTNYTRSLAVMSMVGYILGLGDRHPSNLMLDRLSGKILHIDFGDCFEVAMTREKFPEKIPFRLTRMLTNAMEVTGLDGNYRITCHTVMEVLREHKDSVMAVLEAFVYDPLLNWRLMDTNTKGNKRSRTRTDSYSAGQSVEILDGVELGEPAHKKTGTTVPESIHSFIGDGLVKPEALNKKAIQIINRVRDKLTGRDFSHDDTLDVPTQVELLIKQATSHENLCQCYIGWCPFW

IC50 | Structure (SMILES)
3.82 nM | C[C@H]1COCCN1c1cc(C2(S(=O)(=O)c3c(F)cccc3F)CC2)nc(-c2ccc(NC(=O)NCCF)cc2)n1 [Example 86d, 1-[4-[4-[1-(2,6-difluorophenyl)sulfonylcyclopropyl]-6-[(3S)-3-methylmorpholin-4-yl]pyrimidin-2-yl]phenyl]-3-(2-fluoroethyl)urea]
2.23 nM | C[C@H]1COCCN1c1cc(C2(S(=O)(=O)c3c(F)cccc3F)CC2)nc(-c2ccc(NC(=O)NCC(F)F)cc2)n1 [Example 86e, 3-(2,2-difluoroethyl)-1-[4-[4-[1-(2,6-difluorophenyl)sulfonylcyclopropyl]-6-[(3S)-3-methylmorpholin-4-yl]pyrimidin-2-yl]phenyl]urea]
3.45 nM | C[C@H]1COCCN1c1cc(C2(S(=O)(=O)c3c(F)cccc3F)CC2)nc(-c2ccc(NC(=O)Nc3cnn(C)c3)cc2)n1 [Example 86f, 1-[4-[4-[1-(2,6-difluorophenyl)sulfonylcyclopropyl]-6-[(3S)-3-methylmorpholin-4-yl]pyrimidin-2-yl]phenyl]-3-(1-methylpyrazol-4-yl)urea]
4.87 nM | CCS(=O)(=O)C1(c2cc(N3CCOC[C@@H]3C)nc(-c3ccc(NC(=O)NCCO)cc3)n2)CCC1 [Example 87, 1-[4-[4-(1-Ethylsulfonylcyclobutyl)-6-[(3S)-3-methylmorpholin-4-yl]pyrimidin-2-yl]phenyl]-3-(2-hydroxyethyl)urea]
88.7 nM | CCS(=O)(=O)C1(c2cc(N3CCOC[C@@H]3C)nc(-c3ccc(NC(=O)NCc4ncc[nH]4)cc3)n2)CCC1 [Example 87a, 1-[4-[4-(1-ethylsulfonylcyclobutyl)-6-[(3S)-3-methylmorpholin-4-yl]pyrimidin-2-yl]phenyl]-3-(1H-imidazol-2-ylmethyl)urea]
17.7 nM | CCS(=O)(=O)C1(c2cc(N3CCOC[C@@H]3C)nc(-c3ccc(NC(=O)NCCCO)cc3)n2)CCC1 [Example 87b, 1-[4-[4-(1-ethylsulfonylcyclobutyl)-6-[(3S)-3-methylmorpholin-4-yl]pyrimidin-2-yl]phenyl]-3-(3-hydroxypropyl)urea]
7.75 nM | CCS(=O)(=O)C1(c2cc(N3CCOC[C@@H]3C)nc(-c3ccc(NC(=O)NC)cc3)n2)CCC1 [Example 87c, 1-[4-[4-(1-ethylsulfonylcyclobutyl)-6-[(3S)-3-methylmorpholin-4-yl]pyrimidin-2-yl]phenyl]-3-methylurea]
17.7 nM | CCS(=O)(=O)C1(c2cc(N3CCOC[C@@H]3C)nc(-c3ccc(NC(=O)NC(C)(C)CO)cc3)n2)CCC1 [Example 87d, 1-[4-[4-(1-ethylsulfonylcyclobutyl)-6-[(3S)-3-methylmorpholin-4-yl]pyrimidin-2-yl]phenyl]-3-(1-hydroxy-2-methylpropan-2-yl)urea]
10.3 nM | CCS(=O)(=O)C1(c2cc(N3CCOC[C@@H]3C)nc(-c3ccc(NC(=O)N[C@@H](C)CO)cc3)n2)CCC1 [Example 87e, 1-[4-[4-(1-ethylsulfonylcyclobutyl)-6-[(3S)-3-methylmorpholin-4-yl]pyrimidin-2-yl]phenyl]-3-[(2S)-1-hydroxypropan-2-yl]urea]
9.07 nM | CCS(=O)(=O)C1(c2cc(N3CCOC[C@@H]3C)nc(-c3ccc(NC(=O)N[C@H](C)CO)cc3)n2)CCC1 [Example 87f, 1-[4-[4-(1-ethylsulfonylcyclobutyl)-6-[(3S)-3-methylmorpholin-4-yl]pyrimidin-2-yl]phenyl]-3-[(2R)-1-hydroxypropan-2-yl]urea]
32.1 nM | CCS(=O)(=O)C1(c2cc(N3CCOC[C@@H]3C)nc(-c3ccc(NC(=S)NCCCO)cc3)n2)CCC1 [Example 88, 1-[4-[4-(1-Ethylsulfonylcyclobutyl)-6-[(3S)-3-methylmorpholin-4-yl]pyrimidin-2-yl]phenyl]-3-(3-hydroxypropyl)thiourea]
4.48 nM | CCS(=O)(=O)C1(c2cc(N3CCOC[C@@H]3C)nc(-c3ccc(NC(=S)NCCO)cc3)n2)CCC1 [Example 88a, 1-[4-[4-(1-ethylsulfonylcyclobutyl)-6-[(3S)-3-methylmorpholin-4-yl]pyrimidin-2-yl]phenyl]-3-(2-hydroxyethyl)thiourea]
56.7 nM | CCS(=O)(=O)C1(c2cc(N3CCOC[C@@H]3C)nc(-c3ccc(NC(=S)NCc4ncc[nH]4)cc3)n2)CCC1 [Example 88b, 1-[4-[4-(1-ethylsulfonylcyclobutyl)-6-[(3S)-3-methylmorpholin-4-yl]pyrimidin-2-yl]phenyl]-3-(1H-imidazol-2-ylmethyl)thiourea]
47 nM | CCS(=O)(=O)C1(c2cc(N3CCOC[C@@H]3C)nc(-c3ccc(NC(=S)NCCCO)cc3)n2)CC1 [Example 88c, 1-[4-[4-(1-ethylsulfonylcyclopropyl)-6-[(3S)-3-methylmorpholin-4-yl]pyrimidin-2-yl]phenyl]-3-(3-hydroxypropyl)thiourea]
4 nM | CCS(=O)(=O)C1(c2cc(N3CCOC[C@@H]3C)nc(-c3ccc(NC(=S)NCCO)cc3)n2)CC1 [Example 88d, 1-[4-[4-(1-ethylsulfonylcyclopropyl)-6-[(3S)-3-methylmorpholin-4-yl]pyrimidin-2-yl]phenyl]-3-(2-hydroxyethyl)thiourea]
485 nM | CCNC(=O)Nc1ccc(-c2nc(N3CCOCC3C(N)=O)cc(C3(S(=O)(=O)c4ccccc4)CC3)n2)cc1 (centres unmarked) [Example 89, 4-[6-[1-(Benzenesulfonyl)cyclopropyl]-2-[4-(ethylcarbamoylamino)phenyl]pyrimidin-4-yl]morpholine-3-carboxamide]
18.9 nM | CCNC(=O)Nc1ccc(-c2nc(N3CCOCC3C(=O)N(C)C)cc(C3(S(=O)(=O)c4ccccc4)CC3)n2)cc1 (centres unmarked) [Example 90, 4-[6-[1-(Benzenesulfonyl)cyclopropyl]-2-[4-(ethylcarbamoylamino)phenyl]pyrimidin-4-yl]-N,N-dimethylmorpholine-3-carboxamide]
4.98 nM | C[C@H]1COC[C@H](C)N1c1cc(C2(S(C)(=O)=O)CC2)nc(-c2ccc(NC(=O)NC3CC3)cc2)n1 [Example 91, 3-Cyclopropyl-1-[4-[4-[(3S,5S)-3,5-dimethylmorpholin-4-yl]-6-(1-methylsulfonylyclopropyl)pyrimidin-2-yl]phenyl]urea]
1.98 nM | CNC(=O)Nc1ccc(-c2nc(N3[C@@H](C)COC[C@@H]3C)cc(C3(S(C)(=O)=O)CC3)n2)cc1 [Example 91a, 1-[4-[4-[(3S,5S)-3,5-dimethylmorpholin-4-yl]-6-(1-methylsulfonylcyclopropyl)pyrimidin-2-yl]phenyl]-3-methylurea]
5.21 nM | CCNC(=O)Nc1ccc(-c2nc(N3[C@@H](C)COC[C@@H]3C)cc(C3(S(C)(=O)=O)CC3)n2)cc1 [Example 91b, 1-[4-[4-[(3S,5S)-3,5-dimethylmorpholin-4-yl]-6-(1-methylsulfonylcyclopropyl)pyrimidin-2-yl]phenyl]-3-ethylurea]
3.68 nM | C[C@H]1COC[C@H](C)N1c1cc(C2(S(C)(=O)=O)CC2)nc(-c2ccc(NC(=O)NCCF)cc2)n1 [Example 91c, 1-[4-[4-[(3S,5S)-3,5-dimethylmorpholin-4-yl]-6-(1-methylsulfonylcyclopropyl)pyrimidin-2-yl]phenyl]-3-(2-fluoroethyl)urea]
3.56 nM | C[C@H]1COC[C@H](C)N1c1cc(C2(S(C)(=O)=O)CC2)nc(-c2ccc(NC(=O)NCCO)cc2)n1 [Example 91d, 1-[4-[4-[(3S,5S)-3,5-dimethylmorpholin-4-yl]-6-(1-methylsulfonylcyclopropyl)pyrimidin-2-yl]phenyl]-3-(2-hydroxyethyl)urea]
7.93 nM | C[C@H]1COC[C@H](C)N1c1cc(C2(S(=O)(=O)C3CC3)CC2)nc(-c2ccc(NC(=O)NC3CC3)cc2)n1 [Example 92, 3-Cyclopropyl-1-[4-[4-(1-cyclopropylsulfonylcyclopropyl)-6-[(3S,5S)-3,5-dimethylmorpholin-4-yl]pyrimidin-2-yl]phenyl]urea]
5.51 nM | C[C@H]1COC[C@H](C)N1c1cc(C2(S(=O)(=O)C3CC3)CC2)nc(-c2ccc(NC(=O)NCC(F)F)cc2)n1 [Example 92a, 1-[4-[4-(1-cyclopropylsulfonylcyclopropyl)-6-[(3S,5S)-3,5-dimethylmorpholin-4-yl]pyrimidin-2-yl]phenyl]-3-(2,2-difluoroethyl)urea]
7.46 nM | C[C@H]1COC[C@H](C)N1c1cc(C2(S(=O)(=O)C3CC3)CC2)nc(-c2ccc(NC(=O)Nc3cnn(C)c3)cc2)n1 [Example 92b, 1-[4-[4-(1-cyclopropylsulfonylcyclopropyl)-6-[(3S,5S)-3,5-dimethylmorpholin-4-yl]pyrimidin-2-yl]phenyl]-3-(1-methylpyrazol-4-yl)urea]
7.8 nM | CNC(=O)Nc1ccc(-c2nc(N3[C@@H](C)COC[C@@H]3C)cc(C3(S(=O)(=O)C4CC4)CC3)n2)cc1 [Example 92c, 1-[4-[4-(1-cyclopropylsulfonylcyclopropyl)-6-[(3S,5)-3,5-dimethylmorpholin-4-yl]pyrimidin-2-yl]phenyl]-3-methylurea]
8.07 nM | CCNC(=O)Nc1ccc(-c2nc(N3[C@@H](C)COC[C@@H]3C)cc(C3(S(=O)(=O)C4CC4)CC3)n2)cc1 [Example 92d, 1-[4-[4-(1-cyclopropylsulfonylcyclopropyl)-6-[(3S,5S)-3,5-dimethylmorpholin-4-yl]pyrimidin-2-yl]phenyl]-3-ethylurea]
5.99 nM | C[C@H]1COC[C@H](C)N1c1cc(C2(S(=O)(=O)C3CC3)CC2)nc(-c2ccc(NC(=O)NCCF)cc2)n1 [Example 92e, 1-[4-[4-(1-cyclopropylsulfonylcyclopropyl)-6-[(3S,5S)-3,5-dimethylmorpholin-4-yl]pyrimidin-2-yl]phenyl]-3-(2-fluoroethyl)urea]
6.25 nM | C[C@H]1COC[C@H](C)N1c1cc(C2(S(=O)(=O)C3CC3)CC2)nc(-c2ccc(NC(=O)NCCO)cc2)n1 [Example 92f, 1-[4-[4-(1-cyclopropylsulfonylcyclopropyl)-6-[(3S,5S)-3,5-dimethylmorpholin-4-yl]pyrimidin-2-yl]phenyl]-3-(2-hydroxyethyl)urea]
